Data taken from BigSolDB 2.1.

CN1CCN(C2=Nc3cc(Cl)ccc3Nc3ccccc32)CC1
solubility (mole fraction)
Conditions | 278.15 K | 283.15 K | 288.15 K | 293.15 K | 298.15 K | 303.15 K | 308.15 K | 313.15 K | 318.15 K | 323.15 K
in 2-butanone | 0.0216 | 0.0242 | 0.0274 | 0.0303 | 0.0339 | 0.0374 | 0.0416 | 0.0458 | 0.0505 | 0.0558
in DMF | 0.0953 | 0.1 | 0.106 | 0.112 | 0.117 | 0.123 | 0.129 | 0.135 | 0.141 | 0.148
in THF | 0.0624 | 0.0668 | 0.0716 | 0.0765 | 0.0815 | 0.0866 | 0.0919 | 0.0978 | 0.103 | 0.109
in acetone | 0.0116 | 0.0133 | 0.0151 | 0.0172 | 0.0197 | 0.0223 | 0.0251 | 0.0283 | 0.0323 | 0.0363
in acetonitrile | 0.00213 | 0.00234 | 0.0026 | 0.00285 | 0.00316 | 0.00344 | 0.0038 | 0.00413 | 0.00452 | 0.0049
in chloroform | 0.0625 | 0.0652 | 0.0681 | 0.0712 | 0.0741 | 0.0771 | 0.0801 | 0.0837 | 0.0871 | 0.0905
in ethanol | 0.00533 | 0.0059 | 0.0066 | 0.00735 | 0.00811 | 0.0089 | 0.00988 | 0.0108 | 0.0119 | 0.0131
in ethyl acetate | 0.0109 | 0.0121 | 0.0135 | 0.0152 | 0.0169 | 0.0191 | 0.0209 | 0.0232 | 0.0256 | 0.0283
in ethyl formate | 0.032 | 0.0343 | 0.0367 | 0.0393 | 0.0419 | 0.0443 | 0.047 | 0.0499 | 0.0527 | 0.0564
in isobutanol | 0.00666 | 0.00731 | 0.00809 | 0.00888 | 0.00987 | 0.0108 | 0.0119 | 0.013 | 0.0142 | 0.0155
in isopentanol | 0.0083 | 0.00932 | 0.0103 | 0.0116 | 0.0128 | 0.0142 | 0.0156 | 0.0173 | 0.019 | 0.0212
in isopropanol | 0.00278 | 0.00322 | 0.00367 | 0.00419 | 0.00487 | 0.00544 | 0.00615 | 0.00693 | 0.00781 | 0.00894
in methanol | 0.00633 | 0.00702 | 0.00766 | 0.00839 | 0.00921 | 0.00999 | 0.0109 | 0.012 | 0.013 | 0.014
in methyl acetate | 0.0124 | 0.0141 | 0.0158 | 0.0173 | 0.019 | 0.021 | 0.0229 | 0.0251 | 0.0277 | 0.0303
in n-butanol | 0.00796 | 0.00891 | 0.01 | 0.0113 | 0.0126 | 0.0141 | 0.0154 | 0.0172 | 0.0189 | 0.0208
in n-pentanol | 0.00905 | 0.0102 | 0.0115 | 0.0128 | 0.0143 | 0.0159 | 0.0174 | 0.0193 | 0.0213 | 0.0231
in n-propanol | 0.00708 | 0.00814 | 0.00924 | 0.0105 | 0.0118 | 0.0134 | 0.0148 | 0.0164 | 0.0183 | 0.0204
in sec-butanol | 0.0046 | 0.00509 | 0.00566 | 0.00617 | 0.0068 | 0.00744 | 0.00812 | 0.00893 | 0.00975 | 0.0107
